The values that follow come from patent US5854010A, “Bioassay for detecting 2,3,7,8-tetrachlorodibenzo-para-dioxin and TCDD-like compounds and novel recombinant cell line useful therefor” (priority 1997, dated 1998).

One assay concerns MLEL1.1c1 cells. Put plainly: TCDD-inducible luciferase activity, stably transfected clonal cell line. Type of assay: cell-based, mouse. The settings on record: 24 h. The protocol:
(§1) Using the stabilized luciferase assay system (purchased from Promega), luciferase activity in an aliquot of the cleared lysed cell supernatant (20 μl) was determined by mixing it with 100 µl of luciferase assay reagent (purchased from Promega) and measuring the resulting luminescence in a Turner Luminometer or Dynatech ML3000 microplate luminometer (light output was integrated over 1 minute after a delay time of 30 seconds).
(§2) Using a microplate adaptation of the method reported by Bradford in "A Rapid Sensitive Method for the Quantitation of Microgram Quantities of Protein Utilizing the Principle of Protein-Dye Binding", Anal. Biochem., […], pp. 248-254 (1976), luciferase activity was standardized to the protein concentration of the supernatant (with bovine serum albumin as the protein standard). Because of instrument differences in luminescence measurement and data output, luciferase activity was determined as relative light units (RLU) per microgram of protein, which was converted to milligram of protein as reported in the Tables below.
(§3) Cells from each of these five stable cell lines were cotransfected with the vectors, pGudLuc1.1 and pSV2neo (15 μg of each). Following a 24 hour incubation, the cotransfected cells were split 1 to 10 and replated into a selective medium containing the antibiotic, G418. After 2-3 weeks of growth, individual cell colonies were identified and isolated. Although numerous inducible cell clones were isolated, many contained high constitutive luciferase activity, possibly due to integration of the plasmid (or a truncated form of the plasmid) into a genomic site which allows the promoter to be continually active. […] The clones with the greatest ratio of inducible to constitutive luciferase activity were selected for further characterization.
(§4) More particularly, isolated clones were grown until confluent, and then incubated in the absence or presence of TCDD (1 nM solubilized in DMSO) for 24 hours. After the incubation, luciferase activity was determined as described above.

Another assay relates to H1L1.1 cells. Described as above. Type of assay: cell-based, mouse. The following applies: 24 h. On the procedure:
as §1, §2, §3, §4

The mark [1] stands for this setting: Mus musculus, TCDD 1 nM vs DMSO.
Where [2] appears, read: TCDD 1 nM, mean ± SD of triplicate assays.

The fold induction is the ratio of treated to control signal. Read a low fold induction as little rise in signal. In the case of `Clc1cc2c(cc1Cl)Oc1cc(Cl)c(Cl)cc1O2` [TCDD, 2,3,7,8-tetrachlorodibenzo-para-dioxin], the fold induction amounted to 14 in the assay with MLEL1.1c1 cells (setting [1]) and 74 in the assay with H1L1.1 cells (setting [1]). In addition, the figures for the “Luciferase activity, TCDD in DMSO” value in the assay on MLEL1.1c1 cells (setting [2]) and in the assay with H1L1.1 cells (setting [2]) were 0.29 ± 0.05 RLU/mg protein and 5.92 ± 0.70 RLU/mg protein, respectively.
